Results as given in US20110009342A1, “USES OF PDCD5 POLYPEPTIDE FOR TUMOR CHEMOTHERAPY AND ORGAN PROTECTION” (priority 2008, published 2011).
“Also recorded” adds a separate entry of the source. Values belong to the molecule of their own block, whether it stands above or below them.

Columns and labels:
[1] = system: mouse livers; assay: Tunel staining of liver paraffin sections of treated K562 xenograft mice; type: in vivo, BALB/c nu/nu mice; conditions: five high power microscope fields
Procedure: Methods: BALB/c nu/nu female mice (6-8 weeks of age) were injected intraperitoneally with cyclophosphamide (CTX) (Jiangsu Hengrui Medicine Co., Ltd.), 2 mg/day per mouse for two days. One day after the second cyclophosphamide injection, 1.5×10^7 of K562 cells were injected subcutaneously into the single armpit of each of the mice. The mice bearing K562 cell xenografts were divided randomly into nine groups (n=6, i.e., six mice in each group) and each of the mice was i.p. treated, respectively, with normal saline, PDCD5, IDR (Sigma Corporation), and IDR plus PDCD5. Normal saline, PDCD5 (200 μg, 400 μg, or 800 μg, i.e., 10 mg/kg, 20 mg/kg, or 40 mg/kg, respectively), IDR (25 μg, i.e., 1.25 mg/kg) and IDR (25 μg, i.e., 1.25 mg/kg) plus PDCD5 (200 μg, 400 μg, or 800 μg, i.e., 10 mg/kg, 20 mg/kg, or 40 mg/kg, respectively) were used for intraperitoneal injection every other day for a total of five treatments. […] At the end of the experiment, mice were killed.
The excised liver of mice after treatment were fixed in 10% neutrally buffered formalin and then embedded in paraffin after dehydration. […] Meanwhile, paraffin sections after Tunel (Roche Inc.) staining were used to observe the apoptosis of experimental mouse livers, and then the number of apoptotic cells was counted in five high-power microscope field for statistical analysis.

[2] = system: mouse bone marrow; assay: HE staining of bone marrow paraffin sections of treated K562 xenograft mice; type: in vivo, BALB/c nu/nu mice; conditions: combination compared with IDR alone
Procedure: Methods: Cyclophosphamide (CTX) (Jiangsu Hengrui Medicine Co., Ltd.) was used for intraperitoneal injection in BALB/c nu/nu female mice (6-8 weeks of age) and injection lasted for two days. One day after the second cyclophosphamide injection, 1.5×10^7 of K562 cells were injected subcutaneously into the single armpit of the mice. The mice bearing K562 cell xenografts were divided randomly into nine groups (n=6, i.e., six mice in each group) and i.p. treated with normal saline, PDCD5, IDR (Sigma Corporation), and IDR plus PDCD5. Normal saline, PDCD5 (200 μg, 400 μg, or 800 μg, i.e., 10 mg/kg, 20 mg/kg, or 40 mg/kg), […]., 1.25 mg/kg) and […]., 1.25 mg/kg) plus PDCD5 (200 μg, 400 μg, or 800 μg, i.e., 10 mg/kg, 20 mg/kg, or 40 mg/kg) were used for intraperitoneal injection and were given every other day for a total of five treatments. […] At the end of the experiment, mice were killed. The mice were the same batch of that in Example 6. The excised bone of mice after treatment were fixed in 10% neutrally buffered formalin and then embedded in paraffin after dehydration. The paraffin embedding was cut and paraffin sections after HE staining were used to count the number of nucleated cells of each group in mouse bone marrow paraffin sections.

[3] = system: K562 cell xenografts; assay: K562 cell xenografts in nude mice, IDR; type: in vivo, BALB/c nude mice; conditions: IDR 70 μg
Procedure: Methods: BALB/c nude female mice (6-8 weeks of age) were used, and the mice were pretreated by i.p. injections of cyclophosphamide (Jiangsu Hengrui Medicine Co., Ltd.) once daily at a dose of 2 mg per mouse for two consecutive days. After two days of the cyclophosphamide injection, 1.5×10^7 K562 cells were injected subcutaneously into the single flanks of the mouse. The mice bearing K562 cell xenografts were divided randomly into five groups: Normal saline, irrelevant protein, rhPDCD5, IDR (idarubicin, Sigma Company), and IDR plus rhPDCD5. IDR treatments were given every other day i.p. The longest diameter and shortest diameter of tumors were measured by vernier caliper at the beginning of treatment and during the treatment. […] At the end of the experiment, the mice were killed and tumor masses were dissected and then weighed. […] Tumor volume was calculated using the following formula: πls^2/6, where 1=long diameter and s=short diameter.

[4] = system: mice hearts; assay: HE staining of heart paraffin sections of treated K562 xenograft mice; type: in vivo, BALB/c nu/nu mice
Procedure: (§1) Methods: BALB/c nu/nu female mice (6-8 weeks of age) were injected intraperitoneally with cyclophosphamide (CTX) (Jiangsu Hengrui Medicine Co., Ltd.), 2 mg/day per mouse for two days. One day after the second cyclophosphamide injection, 1.5×10^7 of K562 cells were injected subcutaneously into the single armpit of each of the mice. The mice bearing K562 cell xenografts were divided randomly into nine groups (n=6, i.e., six mice in each group) and each of the mice was i.p. treated, respectively, with normal saline, PDCD5, IDR (Sigma Corporation), and IDR plus PDCD5. […] At the end of the experiment, mice were killed. The mice were the same batch of that of Example 6. The excised hearts of mice after treatment were fixed in 10% neutrally buffered formalin and then embedded in paraffin after dehydration. The paraffin embedding was cut and paraffin sections after HE staining were used to observe the myocardial congestion, hemorrhage, and myofiber degeneration of heart in mice.

[5] = system: K562 cells; assay: FITC/Annexin-V apoptosis by flow cytometry, IDR; type: cell-based; conditions: IDR 56 ng/mL; PDCD5 30 μg/mL where combined; 24 hours
Procedure: Methods: Cell staining with FITC/Annexin-V and cell apoptosis in vitro detection by flow cytometry: K562 cells (ATCC) were maintained in RPMI 1640 (Life Technologies, USA) supplemented with 10% FBS (Hyclone, USA), and were plated in 24-well culture dishes to a density of 2×10^5 cells/mL. rhPDCD5 protein was added with a final concentration of 7.5 μg/mL, 15 μg/mL and 30 μg/mL, respectively, in each well. Chemotherapeutic drug IDR was then added with a final concentration of 56 ng/mL and RPMI 1640 with 10% FBS was added to make the system to 1 mL. After 24 hours of co-culture, the cells were stained with FITC/Annexin-V (Baosai company) and apoptosis was detected by flow cytometry.

[6] = system: mouse livers; assay: HE staining of liver paraffin sections of treated K562 xenograft mice; type: in vivo, BALB/c nu/nu mice
Procedure: as §1, with “excised liver” for “excised hearts”, “the necrosis of experimental mouse livers. Meanwhile, paraffin sections after Tunel (Roche Inc.) staining were used to observe the apoptosis of experimental mouse livers,” for “the myocardial congestion, hemorrhage,”, “and then the number” for “and myofiber degeneration”, “of apoptotic cells was counted” for “of heart”, “in five high-power microscope field for statistical analysis.” for “in mice.”

[7] = system: K562 cells; assay: clonogenic assay of agarose, IDR; type: cell-based; conditions: Homo sapiens, K562, 336 h; IDR 35 ng/mL; PDCD5 15-60 μg/mL where combined; 14 days; read-out: rate of clonogenic inhibition
Procedure: Clonogenic assay of agarose: Cell concentration was adjusted to 2.5×10^5 cell/mL. NS (control group) was prepared by taking 0.01 mL single-cell suspension, 0.5 mL 1% agarose, and 0.5 mL 2×RPMI 1640 medium containing 20% FCS, to bring the culture system to 1.0 mL. Test groups were prepared by taking 0.01 mL single-cell suspension and 0.5 mL 1% agarose, and taking IDR and PDCD5 diluted with 2×RPMI 1640 medium containing 20% FCS to an appropriated volume (having a final concentration of 35 ng/mL for IDR, and a final concentration of 15 μg/mL, 30 μg/mL, or 60 μg/mL for PDCD5 in each respective test group) and further diluted by adding 2×RPMI 1640 medium containing 20% FCS to 0.5 mL, and bringing the culture system to 1.0 mL. The culture system was added to 24-well plates, with 1 mL per well, and triplicate wells for each group. The plates were incubated in a CO2 incubator for 14 days until colonies formed. The clonogenic number was counted by microscope. A colony with more than 30 cells was counted as one positive colony.

[8] = system: HEK293 cells; assay: PDCD5-FITC internalization, flow cytometry; type: cell-based; conditions: incubated at 4° C.
Procedure: Methods: HEK293 and U937 cells (ATCC) were maintained in RPMI 1640 (Life Technologies, USA), supplemented with 10% heat-inactivated fetal bovine serum (Hyclone, USA), penicillin (100 units/mL), streptomycin (100 μg/mL), and L-glutamine (2 mM). The HEK293 cells were adherent cells with expression of caveolin-1, while the U937 cells were suspension cells without expression of caveolin-1.
The purified rhPDCD5 protein from Example 2 was suspended into 0.025 M sodium carbonate-sodium bicarbonate buffer (pH 9.0). The rhPDCD5 protein was labeled (covalent) by fluorescein isothiocyanate (FITC, Sigma-Aldrich) as described by Masseyeff R. F. et al. (Methods Immunology Analysis 3, 237-238, 1993), and then purified by Sephadex G25 to remove free FITC to obtain PDCD5-FITC protein.
Results: Performance of Flow Cytometry: Quantification of internalized FITC-labeled PDCD5 recombinant protein: HEK293cells were plated in 24-well plates to about 70% confluence, […] FIG. 3. After incubation, the cells were then washed twice, trypsinized, centrifuged, again washed twice with PBS, and finally analyzed by flow cytometry using a FACSCalibur flow cytometer (BD Biosciences).

[9] = system: HEK293 cells; assay: intracellular localization of FITC-labeled PDCD5, fluorescence microscopy; type: cell-based; conditions: 20 μg/mL, 5 hours
Procedure: Analysis of intracellular localization of the FITC-labeled recombinant PDCD5 protein by fluorescence microscopy: HEK293 cells were grown in specialized glass-bottom microwell dishes (MatTek Corp., USA) to about 50% confluence and washed, and then fresh 10% fetal bovine serum medium and PDCD5-FITC was added to a final concentration of 20 μg/mL. At each time point shown in the drawing, the cells were rinsed twice with PBS buffer and fixed with 2% paraformaldehyde in PBS for 15 min at room temperature. Cells were imaged using a TCS-SP laser-scanning confocal microscope with a 40× or 63×oil immersion lenses (Leica Microsystems, Mannheim, Germany). Nuclei were visualized by Hoechst 33342 (red regions, a pseudocolor).

[10] = system: U937 cells; assay: PDCD5-FITC internalization, flow cytometry; type: cell-based; conditions: incubated at 4° C.
[11] = no PDCD5, Imatinib 1.2 mg oral or IDR 25 μg i.p., n=6

number of mouse bone marrow nucleated cells [2]: decreased
myocardial hemorrhage and congestion, and myofiber fracture/degeneration (in words) ([4]; HE staining): significant
Myocardial hemorrhage and congestion: mice graded + [4, 11]: 3 number of mice
Myocardial hemorrhage and congestion: mice graded ++ [4, 11]: 3 number of mice
Myocardial hemorrhage and congestion: mice graded − [4, 11]: 0 number of mice
Myofiber degeneration: mice graded + [4, 11]: 3 number of mice
Myofiber degeneration: mice graded − [4, 11]: 3 number of mice
Molecule: CC(=O)[C@]1(O)Cc2c(O)c3c(c(O)c2[C@@H](O[C@H]2C[C@H](N)[C@H](O)[C@H](C)O2)C1)C(=O)c1ccccc1C3=O [IDR, idarubicin]
number of apoptotic cells in mice liver, IDR alone vs IDR combined with PDCD5 [1]: significantly higher
tumor inhibitory rate ([3]; PDCD5 local (intratumoral) injection, 60 μg where combined): 60.27%
tumor inhibitory rate ([3]; treatment started at average tumor volume 57.7 mm^3, PDCD5 i.p. 800 μg where combined): 62.79%
cell apoptosis rate [5]: 22.57%
sinusoidal expansion, congestive hemorrhage and necrosis of liver cells surrounding sinusoid (in words) ([6]; HE staining): significant
Sinusoidal expansion, congestive hemorrhage and necrosis of liver cells surrounding sinusoid: mice graded + [6, 11]: 3 number of mice
Sinusoidal expansion, congestive hemorrhage and necrosis of liver cells surrounding sinusoid: mice graded ++ [6, 11]: 3 number of mice
Sinusoidal expansion, congestive hemorrhage and necrosis of liver cells surrounding sinusoid: mice graded +/− [6, 11]: 0 number of mice
Sinusoidal expansion, congestive hemorrhage and necrosis of liver cells surrounding sinusoid: mice graded − [6, 11]: 0 number of mice
inhibition at 0.035 µg/mL [7]: 35.5%

B1: PDCD5-FITC: rhPDCD5 protein covalently labeled by fluorescein isothiocyanate (conjugate, UniProt O14737 2-125, looked up)
Programmed cell death protein …: ADEELEALRRQRLAELQAKHGDPGDAAQQEAKHREAEMRNSILAQVLDQSARARLSNLALVKPEKTKAVENYLIQMARYGQLSEKVSEQGLIEILKKVSQQTEKTTTVKFNRRKVMDSDEDDDY
modifications: FITC label
notes: rhPDCD5 protein covalently labeled by fluorescein isothiocyanate
internalization (uptake) at 4° C. [8]: blocked; also recorded: inhibited
intracellular localization of fluorescence [9]: localized to discrete compartments in the cytoplasm
internalization (uptake) at 4° C. [10]: blocked; also recorded: inhibited
